Values joined by “and” are separate entries in the source; they are usually repeats but may differ in a detail not shown here. Equal values may be shown once. Read-outs that look alike come from different tables or passages of the source.
Tests used:
[1] = tested on: children with STXBP1-E and SLC6A1-NDD; test: Open-label pilot study of glycerol phenylbutyrate: seizure response (seizure diary); format: in vivo, human; conditions: of 20 participants
Description: (§1) After institutional review board approval, 20 participants were enrolled in a single treatment group, multiple-dose, open-label, pilot study to evaluate the safety, tolerability, pharmacokinetics (PK) and pharmacodynamics (PD) of glycerol phenylbutyrate in children with STXBP1-E and SLC6A1-NDD.
Participants in the study were patients aged 2 months to 17 years with STXBP1-E and seizures or with SLC6A1-NDD. People with SLC6A1 typically experience seizures later in life (typically middle of 1st decade) and so seizures were not an entry criterion for participants with SLC6A1. During enrollment preference was given to patients between 2 months and 3 years old (target of 5 patients) and patients between 4 and 10 years old (target 5 patients). This is because younger patients up to 3 years old may be more sensitive to possible pharmacodynamics and efficacy endpoints and, to a lesser extent, the same may be true for patients 4 to 10 years, as compared to older patients. The study enrolled 11 patients, including 4 children between 2 months and 2 years.
A daily dose of 11.2 mL/m^2, equivalent to 12.4 g/m^2, was given, enterally (by mouth or, if necessary, by nasogastric or gastrostomy tube). The daily dose was divided into three equally divided doses, with each dose given with food.
FIG. 3 is a schedule of assessments for measuring the effectiveness of glycerol phenylbutyrate to treat patients with STXBP1-E and SLC6A1-NDD. […]
Response to the medication was measured qualitatively and quantitatively using the following measures. Quantitative and qualitative measures included the change in the number of and percent change in the seizures per week, as recorded in the seizure diary, comparing weeks 1-4 with weeks 5-10; change and percent change in number of seizures per hour, as recorded by video EEG, comparing visit 5 (day before medication) to visit 6 (first day of medication), and comparing visit 5 to visit 14 (40 days after the first day of medication); and changes in […] in EEG data, comparing visit 5 to visit 6 and visit 5 to visit 14. Additional measures comparing visit 5 and visit 14 included quality of life assessment, as quantified by the change in PEDSQL epilepsy module score, and by the trajectory and overall change in the PELHS QOL-2 score; qualitative analysis of the participant's development and behavior; change in developmental assessment scores; ataxia as measured by changes in SARA scale score; and sleep as measured by CSHQ score. Medication dosing adherence was also assessed, quantified as the percentage of days in which the participant received the full prescribed dose, and considering obstacles to adherence qualitatively as reported by caregivers. […]

[2] = tested on: child with SLC6A1; test: Open-label pilot study: EEG before and after treatment; format: in vivo, human; conditions: 10 second EEG, same child with SLC6A1, six weeks after treatment vs prior to treatment (brief absence seizure)
Description: Investigators noted EEG changes, including standard clinical interpretation of the EEG and video (particularly for abnormal movements).
Visit 5 was a pre-treatment baseline visit conducted at least 28 days after visit 1 and the day before treatment initiation. This visit was conducted in person while the patient was admitted to hospital. During this visit, the investigator reviewed the participant's seizure diary and medical history. The investigator administered several assessments, including the PEDSQL Epilepsy Module, the PELHS QOL 2, the SARA Scale, the CARS, the CSHQ, and the ORCA. The participant was given a physical exam and had urine and blood samples collected for a series of laboratory tests. Laboratory tests included routine laboratory tests and specialized laboratory tests. Routine laboratory tests that were conducted included a complete blood count (CBC), chemistry panels, liver function tests (LFTs), urinalysis, amylase test, lipase test, anti-seizure medication (ASM) levels test, and electrocardiogram (EKG). […]
Visit 14 was a treatment evaluation visit and was conducted in person at least 40 days after the first day of medication administration. […] The participant was evaluated by a developmental pediatrician, neuropsychologist, or psychologist, in the same fashion as during visit 5. […]

[3] = non-human primates; via the monocarboxylate transporter 1 mechanism; cited from earlier work
[4] = cited from earlier work
[5] = Blood/plasma and CSF levels of phenylbutyrate after glycerol phenylbutyrate dosing; format: in vivo, human; conditions: doses of 12 g/m^2/day, extrapolated from 3 g/m^2/day
Description: Dosing was sufficient to lead to therapeutic concentrations in the range of 0.25 mM to 1 mM in serum and CSF, based on the following observations. […] CSF levels are approximately ½ to ¼ of serum levels, based on data from non-human primates, thus CSF levels of 0.25 to 0.5 mM were assumed.
The secondary endpoints were measuring plasma concentration of phenylbutyrate and active metabolites. Plasma levels of phenylbutyrate peaked at 2 hours after an oral dose. Thus investigators aimed to obtain levels within 90-150 minutes after the oral dose.

[6] = based on Lexicomp; cited from earlier work
[7] = tested on: children with STXBP1-E and SLC6A1-NDD; test: Open-label pilot study: sleep assessed with the Child's Sleep Habits Questionnaire (CSHQ); format: in vivo, human; conditions: assessed at 10 weeks of drug exposure
Description: as §1
Visit 5 was a pre-treatment baseline visit conducted at least 28 days after visit 1 and the day before treatment initiation. This visit was conducted in person while the patient was admitted to hospital. During this visit, the investigator reviewed the participant's seizure diary and medical history. […]
(§2) Visit 14 was a treatment evaluation visit and was conducted in person at least 40 days after the first day of medication administration. […] The participant was evaluated by a developmental pediatrician, neuropsychologist, or psychologist, in the same fashion as during visit 5.
Response to the medication was measured qualitatively and quantitatively using the following measures. […] Additional measures comparing visit 5 and visit 14 included quality of life assessment, as quantified by the change in PEDSQL epilepsy module score, and by the trajectory and overall change in the PELHS QOL-2 score; qualitative analysis of the participant's development and behavior; change in developmental assessment scores; ataxia as measured by changes in SARA scale score; and sleep as measured by CSHQ score. […]

[8] = mice; via the monocarboxylate transporter 1 mechanism; cited from earlier work
[9] = tested on: children with STXBP1-E and SLC6A1-NDD; test: Open-label pilot study: quality of life assessed with the PEDSQL epilepsy module; format: in vivo, human; conditions: assessed at 10 weeks of drug exposure
Description: as §1
Quality of life was assessed using the Pediatric Quality of Life Inventory (PEDSQL) epilepsy module, which is a validated scale about quality of life for children with epilepsy, and the Pediatric Epilepsy Learning Healthcare System Quality of Life survey (PELHS QOL 2), which is a set of two questions that ask how seizures and medication side effects alter usual routines. The PEDSQL is provided at eprovide.mapi-trust.org/instruments/pediatric-quality-of-life-inventory-epilepsy-module.
Visit 5 was a pre-treatment baseline visit conducted at least 28 days after visit 1 and the day before treatment initiation. This visit was conducted in person while the patient was admitted to hospital. […]
as §2
(§3) Response to the medication was measured qualitatively and quantitatively using the following measures. […]

[10] = tested on: children with STXBP1-E and SLC6A1-NDD; test: Open-label pilot study: communication assessed with the ORCA; format: in vivo, human; conditions: assessed at 10 weeks of drug exposure
Description: as §1
Development was assessed using several pre-specified measures (Vineland, ORCA) as well as an assessment by a pediatric development expert (i.e. a physician, neuropsychologist, or psychologist with expertise in administering and interpreting developmental assessments). During the assessment, several additional validated measures may have been used. These may have included (but were not limited to) the Bayley Scales of Infant and Toddler Development, the Childhood Autism Rating Scale, the Child Behavior Checklist, the Behavior Rating Inventory of Executive Function, the Infant Toddler Social Emotional Assessment, the DAYC (Developmental Assessment of Young Children), or other similar validated scales. […]
as §2, §3

[11] = daily dose 11.2 mL/m^2 enterally

O=C(CCCc1ccccc1)OCC(COC(=O)CCCc1ccccc1)OC(=O)CCCc1ccccc1 [glycerol phenylbutyrate]
Responders (50% or more reduction in seizures clinically associated with the use of glycerol phenylbutyrate) ([1]; daily dose 11.2 mL/m^2 (12.4 g/m^2) enterally in three divided doses): 11 participants
Indeterminant response (improvement, but less than 50% reduction in seizures or not clinically associated with use) [1, 11]: 3 participants
Non-responders [1, 11]: 2 participants
Participants that had no seizures [1, 11]: 4 participants
Seizure activity in EEG after treatment [2]: did not show seizure activity
Crossing of the blood-brain barrier [3]: crosses the blood-brain barrier
Blood levels of phenylbutyric acid ([4]; doses of 3 g/m^2/day of glycerol phenylbutyrate, adults): 38 μg/mL and 0.23 mM
Concentration in serum [5]: ~1000 µM
Side effect frequency: abdominal pain [6]: 7%
Side effect frequency: decreased appetite [6]: 7%
Side effect frequency: diarrhea [6]: 16%
Side effect frequency: dyspepsia [6]: 5%
Side effect frequency: fatigue [6]: 7%
Side effect frequency: flatulence [6]: 14%
Side effect frequency: headache [6]: 14%
Side effect frequency: nausea [6]: 2%
Side effect frequency: vomiting [6]: 7%
Participants with improved sleep, as assessed with the CSHQ [7]: 5 of 12
Crossing of the blood-brain barrier [8]: crosses the blood-brain barrier
Participants with improved quality of life, as assessed with the PEDSQL [9]: 4 of 11
Participants with improved communication, as assessed with the ORCA [10]: 8 of 11

phenylbutyric acid [phenylbutyrate]
Time of peak plasma levels of phenylbutyrate ([4]; after an oral dose): 2 h

— patent publication US20250000829A1, “PHENYLBUTYRATE COMPOSITIONS FOR TREATING DEVELOPMENTAL AND EPILEPTIC ENCEPHALOPATHY (“DEE”), AND STXBP1 DISORDERS” (priority 2023, published 2025)
